Experimental data as given in ChEMBL document CHEMBL3864156, “Inhibition of plasma lipid oxidation induced by peroxyl radicals, peroxynitrite, hypochlorite, 15-lipoxygenase, and singlet oxygen by clinical drugs” (Bioorg Med Chem Lett, 2016).
Active and inactive are the calls of the source. No cut-off for these calls is given here.

Legend:
[1] = Antioxidant activity assessed as inhibition of Meo-AMVN-derived peroxyl radicals-induced fucoxanthin consumption at 50 uM; type: functional
Mus musculus [2] = species: Mus musculus; assay: Antioxidant activity in 10% C57BL/6J mouse plasma assessed as inhibition of AAPH-derived peroxyl radicals-induced pyranine consumption at 50 uM; type: functional, cell-free
[3] = 1-octanol-water partition coefficient, log P of the compound; type: physicochemical
[4] = Plasma concentration in paediatric patients with congestive heart failure; type: ADME; details: human
Mus musculus [5] = species: Mus musculus; assay: Antioxidant activity in 10% C57BL/6J mouse plasma assessed as inhibition of NaOCl-induced lipid oxidation at 30 uM by DPPP-based fluorescence assay; type: functional, cell-free
[6] = Plasma concentration in Sprague-Dawley rat at 1 mg/kg bolus dose with continuous infusion of 1 mg/kg per hour measured for 24 hrs; type: ADME, organism-based; details: iv
Mus musculus [7] = species: Mus musculus; assay: Antioxidant activity in 10% C57BL/6J mouse plasma assessed as inhibition of NaOCl-induced lipid oxidation by DPPP-based fluorescence assay; type: functional, cell-free
Mus musculus [8] = species: Mus musculus; assay: Antioxidant activity in 10% C57BL/6J mouse plasma assessed as inhibition of SIN-1-derived peroxynitrite-induced lipid oxidation by DPPP-based fluorescence assay; type: functional, cell-free
[9] = target: T1, Polyunsaturated fatty acid lipoxygenase ALOX15 (Mus musculus, UniProt P39654); assay: (§1) Inhibition of 15-LOX-mediated lipid oxidation in 10% C57BL/6J mouse plasma; type: cell-free
T1 sequence (P39654 whole entry): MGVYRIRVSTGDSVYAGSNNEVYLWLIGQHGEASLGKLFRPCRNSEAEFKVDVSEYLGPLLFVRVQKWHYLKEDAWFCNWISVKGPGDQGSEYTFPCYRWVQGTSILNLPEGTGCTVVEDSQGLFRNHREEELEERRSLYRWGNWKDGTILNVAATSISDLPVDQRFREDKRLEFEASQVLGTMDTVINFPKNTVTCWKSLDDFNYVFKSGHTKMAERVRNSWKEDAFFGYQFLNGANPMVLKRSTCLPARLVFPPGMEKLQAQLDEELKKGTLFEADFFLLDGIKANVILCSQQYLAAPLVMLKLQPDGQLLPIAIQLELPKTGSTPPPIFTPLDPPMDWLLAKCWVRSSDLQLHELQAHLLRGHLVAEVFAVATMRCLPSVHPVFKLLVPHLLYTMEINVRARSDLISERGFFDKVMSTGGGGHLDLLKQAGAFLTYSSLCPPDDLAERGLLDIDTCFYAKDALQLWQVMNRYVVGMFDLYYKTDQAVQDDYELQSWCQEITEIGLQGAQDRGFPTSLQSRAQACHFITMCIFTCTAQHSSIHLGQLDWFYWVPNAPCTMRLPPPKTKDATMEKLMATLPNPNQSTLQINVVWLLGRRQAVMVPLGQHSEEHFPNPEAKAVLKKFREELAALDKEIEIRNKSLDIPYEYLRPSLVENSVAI

[10] = target: T2, Polyunsaturated fatty acid lipoxygenase ALOX15 (Mus musculus) (UniProt P39654); assay: as §1; type: cell-free
T2 sequence (whole entry): T1 sequence (P39654 whole entry)

[11] = Plasma concentration in pediatric kawasaki patient at 10 to 25 mg/kg, po by HPLC method; type: ADME, organism-based; details: human, in vivo
[12] = Drug level in plasma (unknown origin); type: ADME, cell-free
[13] = Plasma concentration in human at 400 mg, po; type: ADME, cell-free
[14] = 1-octanol/water, read-out: logP

For `Cc1c(C)c2c(c(C)c1O)CC[C@@](C)(CCC[C@H](C)CCC[C@H](C)CCCC(C)C)O2`, the inhibition [1] was “Active” and the inhibition (Mus musculus [2]) was “Active”.

With `COc1ccccc1OCCNCC(O)COc1cccc2[nH]c3ccccc3c12` (centres undefined) [CARVEDILOL] the logP ([3]; octanol/water) was 1.04, the concentration [4] was 0.5 µM and the inhibition (Mus musculus [5]) was “Dose-dependent effect”.

In the case of `O=c1c2ccccc2[se]n1-c1ccccc1` [EBSELEN], the concentration at 24 h [6] is reported as 5 to 20 µM, the logP [3, 14] is reported as 1.25 and the inhibition (Mus musculus [5]) is reported as “Dose-dependent effect”.

For `CC1=NN(c2ccccc2)C(=O)C1` [EDARAVONE], the inhibition (Mus musculus [7]) was “Dose-dependent effect”, the inhibition (Mus musculus [8]) was “Dose-dependent effect” and the IC50 [9] was 34 µM. For the same compound, the inhibition [10] was “Dose-dependent effect”, the logP [3, 14] was 0.86 and the inhibition (Mus musculus [2]) was “Active”.

For `CC(=O)CCCCn1c(=O)c2c(ncn2C)n(C)c1=O` [PENTOXIFYLLINE], the concentration [11] was 5 to 20 µM, the logP [3, 14] was 0.19 and the inhibition (Mus musculus [5]) was “Dose-dependent effect”.

For `CC(C)(Sc1cc(C(C)(C)C)c(O)c(C(C)(C)C)c1)Sc1cc(C(C)(C)C)c(O)c(C(C)(C)C)c1` [PROBUCOL], the inhibition (Mus musculus [7]) was “Dose-dependent effect”, the inhibition (Mus musculus [8]) was “Dose-dependent effect” and the concentration [12] was 30 µM. For the same compound, the logP [3, 14] was 1.02 and the inhibition (Mus musculus [2]) was “Active”.

For `Cc1c(C)c2c(c(C)c1O)CCC(C)(COc1ccc(CC3SC(=O)NC3=O)cc1)O2` (centres undefined) [TROGLITAZONE], the inhibition [1] was “Active”, the IC50 [9] was 20 µM and the inhibition [10] was “Dose-dependent effect”. The logP ([3]; octanol/water) was 0.95, the concentration [13] was 5 to 20 µM and the inhibition (Mus musculus [5]) was “Dose-dependent effect”. For the same compound, the inhibition (Mus musculus [2]) was “Active”.
